Like-named read-outs stand apart in the source and are kept apart here.
Legend:
[1] = system: MDA-MB-231 breast cancer cells; assay: Tumor cell growth inhibition, crystal violet (Example 2); type: cell-based, human; conditions: for IC50: read-out: IC50
From the text: In order to investigate the photolysis of the drugs in a system amenable to cell culture use, a custom UV irradiation apparatus was constructed, consisting of 3 small blacklight fluorescent bulbs (Southern New England Ultraviolet Co., λmax=350 nm) set between two ring stands and suspended at a height of 11.5 cm. The bulbs' housing was reflective aluminum so as to direct as much UV irradiation as possible downward toward the plate. Upon installation in sterile cell culture hood, the power of the system was measured at approximately 6-7 mW using a Scientech laser power meter. Prior to experimentation, the hood and irradiation apparatus was sterilized with 254 nm germicidal UV irradiation overnight. Using this setup, 100 μM of 4,5-dimethoxy-2-nitrobenyl alcohol (DMNA), photodoxazolidine R═H, and glucose-PEG-photodoxazoldine were irradiated in individual wells of a 24-well plate. Initially, 50 μL of a DMSO stock was diluted with 950 μL of PBS and aliquots of 50 μL were removed at various times (0-180 min), mixing by pipetting each time. The timepoints were analyzed by HPLC (method 2) and plotted as fractional conversion versus time. […] Therefore, a second experiment was performed in which the PBS was replaced with 1:1 acetonitrile:water. With this system of 5% DMSO/47.5% acetonitrile/47.5% water, no visible precipitation was produced over the course of the reaction.
The ovarian carcinoma line NCl/ADR-RES (ADR) was grown in high-glucose Dulbecco's Modified Eagle Medium (DMEM) supplemented with 10% fetal bovine serum (FBS), 200 units/mL of penicillin and 200 μg/mL of streptomycin. The breast carcinoma line MDA-MB-231 was cultured in low-glucose DMEM with the same additives. Both lines were maintained in a humidified incubator with 5% CO2/95% air at 37° C. UV irradiations were performed with the apparatus described above.
Growth inhibition experiments were performed by seeding cells into 96-well plates or 24-well plates at densities of 1000-1500 cells per well or 8000 cells per well, respectively, and allowing the cells to adhere overnight. The media was then replaced with a range of aqueous concentrations of the drug in question and allowed to incubate at 37° C. with the cells for a span of time (Inc1) which ranged from 1 min to 48 hours. Irradiation was performed at room temperature with the plate's lid removed and ranged from 1 to 30 min. In some experiments, the drug solution was removed following Inc1 and irradiated in clean media or PBS. Following irradiation, the cells were placed back into the 37° C. incubator for a second period of incubation (Inc2), which varied between 1 min and 24 h, prior to replacement with fresh media. Plates which received no irradiation but identical treatment otherwise were done in parallel. The cells were then grown until the no-drug control wells reached approximately 80% confluence or 5 days, whichever was shorter. […] The cells were fixed with 5% formalin in PBS, stained with crystal violet, washed with tap water, and air-dried. The stain was resolubilized in 50% isopropyl alcohol, 50% H2O containing 2% (w/v) SDS. The staining density was read on a multiwell plate reader at 588-600 nm. Percentage cell density was calculated relative to the irradiated no-drug control wells, plotted as a function of drug concentration, and fit using non-linear least squared analysis with a variable-slope dose response model in GraphPad Prism 5.0 software.
Although the introduction of a long-pass glass filter between the light source and the plate alleviated this effect to a small extent, a maximum irradiation time of 10 min was settled upon. […] Since a media change at that point would remove the cells as well, the re-adherence of the cell population was accomplished by the addition of a large volume (200 μL) of complete media following Inc2, and overnight incubation. Then, a full media change was done to remove the drug. […]

[2] = system: MDA-MB-231 breast carcinoma cells; assay: Tumor cell uptake by flow cytometry; type: cell-based, human; conditions: 500 nM, 30 min to 4 h, compared against doxorubicin
Protocol: Uptake of the drugs by the cells was measured by flow cytometry. The cells were incubated with 500 nM photodoxazolidine R═H, azido-PEG-photodoxazolidine, or doxorubicin dissolved in 1:1 PBS:serum-free media for between 30 min and 4 h, after which the drug was removed and the cells washed with cold PBS. Cells were trypsinized to a single-cell suspension, rinsed again in cold PBS, and stored on ice for analysis by flow cytometry, monitoring the presence of the anthraquinone fluorophore (channel FL2). Cell populations were gated for intact cells in the side-scatter/forward-scatter plot and 10,000 gated events were scored for each timepoint. The mean fluorescence of the population was compared to the mean fluorescence of 10,000 gated events for an untreated population and the fold increase over background was plotted versus time of drug incubation.
Using MDA-MB-231 breast carcinoma cells, the cellular uptake of photodoxazolidine and azido-PEG-photodoxazolidine was analyzed by flow cytometry and compared against the uptake of doxorubicin.

Question: Which “fold drop of IC50 on near UV irradiation” value ([1]; MDA-MB-231, 10 min UV vs alone) does the source give for `COc1cc(COC(=O)N2COC3C(C)OC(OC4CC(O)(C(=O)CO)Cc5c(O)c6c(c(O)c54)C(=O)c4c(OC)cccc4C6=O)CC32)c([N+](=O)[O-])cc1OC` (centres unmarked) [Photodoxazolidine] here?
Answer: approximately 22 fold

Question: What about the IC50 ([1]; MDA-MB-231, +UV 10 min, near UV 350 nm) of the same compound?
Answer: 0.073 µM

Question: What about the IC50 ([1]; MDA-MB-231, prodrug alone, no UV, listed as Photodoxaz) of the same compound?
Answer: 1.6 ± 0.12 µM

Question: What about the IC50 ([1]; MDA-MB-231, prodrug alone, no UV, listed as photodoxazolidine) of the same compound?
Answer: ~1.6 µM

Question: What about the “cellular uptake (cellular fluorescence)” value [2] of the same compound?
Answer: rapid increase in cellular fluorescence
